ChEMBL document CHEMBL5154700, “Discovery of Gut-Restricted Small-Molecule Inhibitors of Intestinal Sodium-Dependent Phosphate Transport Protein 2b (NaPi2b) for the Treatment of Hyperphosphatemia” (J Med Chem, 2022)
In brackets after ≈: the same amount, converted by molar mass.

Assays:
[1] = Passive permeability of the compound across apical to basolateral at 100 uM incubated for 5 hrs by PAMPA assay; type: ADME; conditions: read-out: permeability
[2] = biological target: T1, Sodium-dependent phosphate transport protein 2B (Homo sapiens, UniProt O95436); experiment: Inhibition of human NaPi2b expressed in KJMGER8 cells assessed as reduction in H2[33P]O4 uptake incubated for 60 mins by TopCount scintillation counting method; type: cell-based
T1 sequence (O95436 whole entry): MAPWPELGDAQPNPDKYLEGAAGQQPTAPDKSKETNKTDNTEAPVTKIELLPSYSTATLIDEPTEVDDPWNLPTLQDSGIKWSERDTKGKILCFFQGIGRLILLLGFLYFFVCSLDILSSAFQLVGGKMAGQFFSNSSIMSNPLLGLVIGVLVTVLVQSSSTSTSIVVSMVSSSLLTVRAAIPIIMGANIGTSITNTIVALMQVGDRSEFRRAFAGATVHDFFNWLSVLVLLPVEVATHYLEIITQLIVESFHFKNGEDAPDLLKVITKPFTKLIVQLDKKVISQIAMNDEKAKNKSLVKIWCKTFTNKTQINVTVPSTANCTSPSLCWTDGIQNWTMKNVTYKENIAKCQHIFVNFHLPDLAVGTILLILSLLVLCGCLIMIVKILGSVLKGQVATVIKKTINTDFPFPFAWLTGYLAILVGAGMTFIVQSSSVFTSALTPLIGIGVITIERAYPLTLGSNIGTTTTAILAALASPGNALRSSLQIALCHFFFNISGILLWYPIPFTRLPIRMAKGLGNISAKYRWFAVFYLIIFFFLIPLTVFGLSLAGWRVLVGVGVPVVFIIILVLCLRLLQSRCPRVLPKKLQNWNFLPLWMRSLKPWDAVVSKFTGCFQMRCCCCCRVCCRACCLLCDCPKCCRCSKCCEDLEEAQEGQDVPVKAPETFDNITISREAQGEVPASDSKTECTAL

[3] = Solubility of compound in phosphate buffer at pH 7.4; type: physicochemical
[4] = Drug concentration in CRL:CD(SD) rat plasma at 30 mg/kg, po measured after 7 hrs by LC-MS/MS analysis; type: ADME, organism-based
[5] = Drug concentration in CRL:CD(SD) rat lung at 30 mg/kg, po measured after 7 hrs by LC-MS/MS analysis; type: ADME, organism-based; conditions: read-out: Ct
[6] = Cmax in CRL:CD(SD) rat at 30 mg/kg, po measured after 7 hrs by LC-MS/MS analysis; type: ADME, organism-based; set-up: dose 30 mg/kg, time 7 hrs, route po; conditions: in vivo
[7] = Half life in CRL:CD(SD) rat at 30 mg/kg, po measured after 7 hrs by LC-MS/MS analysis; type: ADME, organism-based; conditions: in vivo
[8] = AUC (0 to t) in CRL:CD(SD) rat at 30 mg/kg, po measured after 7 hrs by LC-MS/MS analysis; type: ADME, organism-based; set-up: time 7 hrs, dose 30 mg/kg, route po; conditions: in vivo
[9] = AUC(0 to infinity) in CRL:CD(SD) rat at 30 mg/kg, po measured after 7 hrs by LC-MS/MS analysis; type: ADME, organism-based; set-up: dose 30 mg/kg, time 7 hrs, route po; conditions: in vivo
[10] = Mean residence time in CRL:CD(SD) rat at 30 mg/kg, po measured after 7 hrs by LC-MS/MS analysis; type: ADME, organism-based; conditions: in vivo
[11] = Oral bioavailability in CRL:CD(SD) rat at 30 mg/kg measured after 7 hrs by LC-MS/MS analysis; type: ADME, organism-based; conditions: in vivo
[12] = Inhibition of phosphate uptake in CRL:CD(SD) rat small intestine in at 0.1 mg treated through intrajejunal after 30 mins by In-situ closed-loop method; conditions: in vivo, other, 0.5 h
[13] = Ratio of drug level in lung to plasma in CRL:CD(SD) rat at 30 mg/kg, po measured after 7 hrs by LC-MS/MS; type: ADME, organism-based; conditions: lung and plasma
[14] = Cmax in CRL:CD(SD) rat at 10 mg/kg, po by LC-MS/MS analysis; type: ADME, organism-based; set-up: dose 10 mg/kg, route po; conditions: in vivo
[15] = AUC (0 to t) in CRL:CD(SD) rat at 10 mg/kg, po by LC-MS/MS analysis; type: ADME, organism-based; set-up: dose 10 mg/kg, route po; conditions: in vivo
[16] = Oral bioavailability in CRL:CD(SD) rat at 10 mg/kg by LC-MS/MS analysis; type: ADME, organism-based; conditions: in vivo
[17] = Drug concentration in CRL:CD(SD) rat plasma at 30 mg/kg, po measured after 6 hrs by LC-MS/MS analysis; type: ADME, organism-based
[18] = Drug concentration in CRL:CD(SD) rat lung at 30 mg/kg, po measured after 6 hrs by LC-MS/MS analysis; type: ADME, organism-based; conditions: read-out: Ct

Compound	Papp at 5 h, 100 µM [1] [×10⁻⁶ cm/s]	IC50 [2] [nM]	solubility [3] [µM]	Kp at 7 h [13]	also measured
COCCN(CCOCCOCCOCCOCCOCCOCc1cccc(C(=O)Nc2sc3c(c2C(=O)N/N=C/c2ccc(Cl)c(C(F)(F)F)c2)CCC(C)(C)C3)c1)CC(=O)O	< 0.025	64	122 (≈ 115 µg/mL)		concentration at 7 h [4]: < 0.3 ng/mL; concentration at 7 h [5]: < 1.5 ng/g; Cmax [6]: 0.444 ng/mL; half-life [7]: 3.53 h; AUC(0-t) at 7 h [8]: 0.665 ng·h/mL; AUC(0-inf) [9]: 2.62 ng·h/mL; MRT [10]: 5.25 h; bioavailability [11]: 0.1%; inhibition (INH) [12]: 17%
CC1(C)CCc2c(sc(NC(=O)c3cccc(OCCOCCOCCOC[C@H](O)CN(CCO)CCO)c3)c2C(=O)N/N=C/c2ccc(Cl)c(C(F)(F)F)c2)C1		83	76 (≈ 64.1 µg/mL)	44	
CCN(CC)CCOCCOCCOc1cccc(C(=O)Nc2sc3c(c2C(=O)N/N=C/c2ccc(Cl)c(C(F)(F)F)c2)CCC(C)(C)C3)c1	< 0.025	40	55 (≈ 40.6 µg/mL)	130	
CCN(CC)C[C@@H](O)COCCOCCOCCOc1cccc(C(=O)Nc2sc3c(c2C(=O)N/N=C/c2ccc(Cl)c(C(F)(F)F)c2)CCC(C)(C)C3)c1				428	
CCN(CC)CCCN(C)Cc1cccc(C(=O)Nc2sc3c(c2C(=O)N/N=C/c2ccc(Cl)c(C(F)(F)F)c2)CCN(C2CC2)C3)c1					Cmax [14]: 3.59 ng/mL; AUC(0-t) [15]: 10.4 ng·h/mL; bioavailability [16]: 0.96%; concentration at 6 h [17]: 1.86 ng/mL; concentration at 6 h [18]: 6350 ng/g
CCN(CC)CCOCCOCCOc1cccc(C(=O)Nc2sc3c(c2C(=O)N/N=C/c2ccc(Cl)c(C(F)(F)F)c2)CCN(C2CC2)C3)c1	0.23	315	82 (≈ 61.5 µg/mL)		
O=C(Nc1sc2c(c1C(=O)N/N=C/c1ccc(Cl)c(C(F)(F)F)c1)CCCC2)c1cccc(CN2CCC(O)CC2)c1		87	0.1 (≈ 0.0619 µg/mL)		
